Data: ChEMBL document CHEMBL1144947, “L-Serine and glycine based ceramide analogues as transdermal permeation enhancers: polar head size and hydrogen bonding” (2003)

What was measured:
Homo sapiens [1] = species on record: Homo sapiens; assay: Enhancement ratio in theophylline permeation through human skin from isopropyl myristate (IPM) suspension (in vitro); type: functional
Homo sapiens [2] = species on record: Homo sapiens; assay: Enhancement ratio in theophylline permeation through human skin from water (in vitro); type: functional

Structure (SMILES): CCCCCCCC/C=C/CCCCCCCC(=O)NC(CO)C(=O)OCCCCCCCCCCCC (centres undefined)
- ER (Homo sapiens [1]): 1.49
- ER (Homo sapiens [2]): 1.26

Structure (SMILES): CCCCCCCCCCCCOC(=O)C(CO)NC(=O)C(CO)NC(=O)CCCCCCCCCCC (centres undefined)
- ER (Homo sapiens [1]): 1.07
- ER (Homo sapiens [2]): 1.26

Structure (SMILES): CCCCCCCCCCCCOC(=O)CNC(=O)CCCCCCCCCCC
- ER (Homo sapiens [1]): 1.11
- ER (Homo sapiens [2]): 12.5

Structure (SMILES): CCCCCCCCCCCCOC(=O)C(CO)NC(=O)C(O)C(O)C(=O)OCCCCCCCCCCC (centres undefined)
- ER (Homo sapiens [1]): 1.45
- ER (Homo sapiens [2]): 1.39

Structure (SMILES): CCCCCCCCCCCCOC(=O)CNC(=O)CNC(=O)CCCCCCCCCCC
- ER (Homo sapiens [1]): 1.09
- ER (Homo sapiens [2]): 2.28

Structure (SMILES): CCCCCCCCCCCCOC(=O)C(CO)NC(=O)CCCCCCCCCCC (centres undefined)
- ER (Homo sapiens [1]): 1.21
- ER (Homo sapiens [2]): 2.74

Structure (SMILES): CCCCCCCCCCCCN1CCCCCC1=O [LAUROCAPRAM]
- ER (Homo sapiens [1]): 0.6
- ER (Homo sapiens [2]): 2.5
